Results from patent publication US5250700A, “Phenyl pyrazolidinones as bronchodilators and anti-inflammatory agents” (American Home Products Corporation, priority 1992, dated 1993).

tested on: PDE IV; experiment: Inhibition of PDE IV isolated from canine tracheal muscle (cAMP metabolism); assay type: biochemical; conditions: canine trachealis PDE IV, 1 μM 3H-cAMP, 10 μM CI-930, 30° C., pH 7.8; reduction expressed relative to 10 μM rolipram
Experimental: The following assay is employed to assess the ability of the compound of the invention to inhibit PDE IV. A solution containing PDE IV is prepared from canine tracheal muscle as follows: The dog is euthanized with an overdose of euthanasia while under anesthesia induced by a 33 mg/kg IV bolus of Nembutal. The trachealis muscle is removed, cleaned of connective tissue, and minced thoroughly. Three to four grams of tissue is then homogenized in Trim-HCl buffer (pH 7.8) using a Polytron. The homogenate is then centrifuged at 25,000×g (4° C.) for 30 minutes. The supernatant is decanted and filtered through four layers of gauze, and applied to a 40 cm×2 cm DEAE-Sepharose column that is equilibrated with Trim-HCl buffer (pH 7.8). The column is then washed with an additional 240 mL of buffer to remove unbound proteins. […] Each fraction is assayed for cAMP- and cGMP- metabolizing PDE activity. Fractions eluting at approximately 0.6 M Na-acetate, and containing CAMP but not CGMP metabolic activity are pooled and used as a PDE stock solution for assaying PDE IV inhibitory activity. […] CI-930 is included as an inhibitor of the cyclic GMP-sensitive, cyclic AMP-selectivePDE (PDE III) that is also present in the PDE IV stock solution when prepared as described above.

Row | SMILES | IC50
1 | COc1ccc(C2CC(=O)N(C(=O)NCc3cccs3)N2C)cc1OC1CCCC1 (stereo not shown) [Example 39, 3-(3-Cyclopentyloxy-4-methoxyphenyl)-2-methyl-5-oxo-pyrazolidine-1-carboxylic acid thiophen-2-yl methylamide] | 150 nM
2 | COc1ccc(C2CC(=O)N(C(=O)NCCc3cccn3C)N2C)cc1OC1CCCC1 (stereo not shown) [Example 40, 3-(3-Cyclopentyloxy-4-methoxyphenyl)-2-methyl-5-oxo-pyrazolidine-1-carboxylic acid 2-(1-methyl-1H-pyrrol-2-yl) ethylamide] | 190 nM
3 | COc1ccc(C2CC(=O)N(C(=O)NCCN3CCOCC3)N2C)cc1OC1CCCC1 (stereo not shown) [Example 41, 3-(3-Cyclolpentyloxy-4-methoxyphenyl)-2-methyl-5-oxo-pyrazolidine-1-carboxylic acid 2-morlpholin-4-yl ethylamide] | 2400 nM
4 | COc1ccc(C2CC(=O)N(C(=O)NCCCn3ccnc3)N2C)cc1OC1CCCC1 (stereo not shown) [Example 42, 3-(3-Cyclopentyloxy-4-methoxyphenyl)-2-methyl-5-oxo-pyrazolidine-1-carboxylic acid 3-imidazol-1-yl propylamide] | 210 nM
